# According to patent publication US20260167656A1, “PHOSPHORAMIDATE COMPOUNDS AND USES THEREOF” (ALLORION THERAPEUTICS INC, priority 2022, published 2026):
# Key:
# [1] = test system: non-small cell lung cancer cell line H460; test: In vitro human cancer cell line cytotoxicity (proliferation) assay in H460, CellTiter-Glo, 72 hours; format: cell-based; conditions: H460 cells, DMSO condition (no AKR1C3 inhibitor), read-out: CTG H460: Avg IC50 (nM) [Assay Condition: DMSO]
# Summary of the method: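 IC50s in nM come from CellTiter-Glo viability read after 72 h of compound exposure. Compounds went in from 10 mM DMSO stocks onto H460 cells, which had been plated at 3×10^3 per well and grown 24 h beforehand at 37 °C, 5% CO2.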
# [2] = test system: non-small cell lung cancer cell line H460; test: H460 proliferation assay in the presence of 3 uM ASP9521 (AKR1C3 specific inhibitor); format: cell-based, human; conditions: H460 cells, CellTiter-Glo, 72 hours, in the presence of 3 uM ASP9521 added 4 hours prior to compounds; read-out: CTG H460: Avg IC50 (nM) [Assay Condition: ASP9521]
# Summary of the method: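 AKR1C3 blocked with 3 uM ASP9521 given 4 h ahead of test compounds. H460 cells, plated 24 h earlier, were then treated for 72 h at 37 °C in 5% CO2. CellTiter-Glo luminescence gave viability.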
smiles,measurement,setting,value
CC(OP(=O)(N1CC1)N1CC1)c1ccc([N+](=O)[O-])c(Cn2cc(C(=O)N(C)C)ccc2=O)c1 (centres unmarked) [Example 6],IC50,"[1]; Homo sapiens, NCI-H460, 72 h",≥ 100 nM
same,IC50,[2],> 10000 nM
O=[N+]([O-])c1ccc2c(c1Oc1ccc(F)c(OCC3CC3)c1)CC[C@H]2OP(=O)(N1CC1)N1CC1 [Example 488],IC50,"[1]; Homo sapiens, NCI-H460, 72 h",< 10 nM
same,IC50,[2],857 nM
Cn1c(=O)oc2cc(Oc3cc4c(cc3[N+](=O)[O-])CCC4OP(=O)(N3CC3)N3CC3)ccc21 (centres unmarked) [Example 174],IC50,"[1]; Homo sapiens, NCI-H460, 72 h",< 10 nM
same,IC50,[2],244 nM
Cc1ccn(-c2cc(Oc3c([N+](=O)[O-])ccc4c3CC[C@@H]4OP(=O)(N3CC3)N3CC3)ccc2F)n1 [Example 439],IC50,"[1]; Homo sapiens, NCI-H460, 72 h",< 10 nM
same,IC50,[2],2090 nM
Cc1cccc(-c2ccc(Oc3c([N+](=O)[O-])ccc4c3CC[C@H]4OP(=O)(N3CC3)N3CC3)cc2)n1 [Example 279],IC50,[1],< 10 nM
same,IC50,[2],1310 nM
"O=[N+]([O-])c1cc2c(cc1Oc1ccc(-c3ccccc3)cc1)C(OP(=O)(N1CC1)N1CC1)CC2 (single isomer, unassigned) [Example 152]",IC50,"[1]; Homo sapiens, NCI-H460, 72 h",< 10 nM
same,IC50,[2],1400 nM
CCC1CN1P(=O)(OCc1ccc([N+](=O)[O-])c(Oc2cccc(C(=O)N(C)C)c2)c1)N1CC1CC (centres unmarked) [Example 10],IC50,"[1]; Homo sapiens, NCI-H460, 72 h",< 10 nM
same,IC50,[2],271 nM
COc1cc(OCC2CC2)cc(Oc2c([N+](=O)[O-])ccc3c2CC[C@@H]3OP(=O)(N2CC2)N2CC2)c1 [Example 501],IC50,"[1]; Homo sapiens, NCI-H460, 72 h",< 10 nM
same,IC50,[2],1080 nM
O=[N+]([O-])c1ccc2c(c1Oc1cccc(-c3noc(C4CC4)n3)c1)CCC2OP(=O)(N1CC1)N1CC1 (centres unmarked) [Example 91],IC50,[1],≥ 100 nM
same,IC50,[2],> 10000 nM
O=C1c2ccc(Oc3c([N+](=O)[O-])ccc4c3CCC4OP(=O)(N3CC3)N3CC3)cc2CN1C1CC1 (centres unmarked) [Example 57],IC50,[1],< 10 nM
same,IC50,[2],219 nM
CCc1nsc(-c2cccc(Oc3c([N+](=O)[O-])ccc4c3CC[C@@H]4OP(=O)(N3CC3)N3CC3)c2)n1 [Example 368],IC50,"[1]; Homo sapiens, NCI-H460, 72 h",10 to 50 nM
same,IC50,[2],3360 nM
CC(OP(=O)(N1C[C@@H]1C)N1C[C@@H]1C)c1ccc([N+](=O)[O-])c(Oc2cccc(C(=O)N(C)C)c2)c1 (some centres unmarked) [Example 211],IC50,"[1]; Homo sapiens, NCI-H460, 72 h",< 10 nM
same,IC50,[2],1270 nM
O=[N+]([O-])c1cc2c(cc1Oc1ccc(C3CC3)cc1)C(OP(=O)(N1CC1)N1CC1)CC2 (centres unmarked) [Example 149],IC50,[1],< 10 nM
same,IC50,[2],372 nM
Cc1noc(-c2cc(Oc3c([N+](=O)[O-])ccc4c3CC[C@@H]4OP(=O)(N3CC3)N3CC3)ccc2F)n1 [Example 326],IC50,"[1]; Homo sapiens, NCI-H460, 72 h",< 10 nM
same,IC50,[2],1270 nM
"O=C(c1cccc(Oc2c([N+](=O)[O-])ccc3c2CCC3OP(=O)(N2CC2)N2CC2)c1)N1CCCCC1 (single isomer, unassigned) [Example 68]",IC50,"[1]; Homo sapiens, NCI-H460, 72 h",< 10 nM
same,IC50,[2],1160 nM
O=C(NC1CCC1)c1ccc(Oc2cc3c(cc2[N+](=O)[O-])CCC3OP(=O)(N2CC2)N2CC2)cc1 (centres unmarked) [Example 190],IC50,"[1]; Homo sapiens, NCI-H460, 72 h",< 10 nM
same,IC50,[2],984 nM
"O=[N+]([O-])c1ccc2c(c1Oc1ccc(-c3cccnc3)cc1)CCC2OP(=O)(N1CC1)N1CC1 (single isomer, unassigned) [Example 54]",IC50,[1],< 10 nM
same,IC50,[2],516 nM
Cn1c(=O)n(C)c2cc(Oc3c([N+](=O)[O-])ccc4c3CCC4OP(=O)(N3CC3)N3CC3)ccc21 (centres unmarked) [Example 93],IC50,[1],≥ 100 nM
same,IC50,[2],878 nM
O=C1CCCCN1c1cccc(Oc2c([N+](=O)[O-])ccc3c2CCC3OP(=O)(N2CC2)N2CC2)c1 (centres unmarked) [Example 410],IC50,[1],10 to 50 nM
same,IC50,[2],4660 nM
"Cc1ccnc(-c2ccc(Oc3c([N+](=O)[O-])ccc4c3CC[C@@H]4OP(=O)(N3CC3)N3CC3)cc2)n1 (single isomer, unassigned) [Example 264]",IC50,"[1]; Homo sapiens, NCI-H460, 72 h",< 10 nM
same,IC50,[2],1370 nM
CC(C)COc1cc(Oc2c([N+](=O)[O-])ccc3c2CC[C@H]3OP(=O)(N2CC2)N2CC2)ccc1F [Example 499],IC50,"[1]; Homo sapiens, NCI-H460, 72 h",< 10 nM
same,IC50,[2],918 nM
CNC(=O)c1ccc(Oc2c([N+](=O)[O-])ccc3c2CCC3OP(=O)(N2CC2)N2CC2)cc1 (centres unmarked) [Example 36],IC50,"[1]; Homo sapiens, NCI-H460, 72 h",10 to 50 nM
same,IC50,[2],527 nM
O=[N+]([O-])c1ccc2c(c1Oc1cccc(OCC(F)(F)F)c1)CCC2OP(=O)(N1CC1)N1CC1 (racemic) [Example 473],IC50,[1],< 10 nM
same,IC50,[2],329 nM
O=[N+]([O-])c1ccc2c(c1Oc1cccc(OCC(F)(F)F)c1)CC[C@@H]2OP(=O)(N1CC1)N1CC1 [Example 474],IC50,[1],< 10 nM
same,IC50,[2],918 nM
O=C(NC1CCC1)c1ccc(Oc2c([N+](=O)[O-])ccc3c2CCC3OP(=O)(N2CC2)N2CC2)cc1 (centres unmarked) [Example 52],IC50,"[1]; Homo sapiens, NCI-H460, 72 h",10 to 50 nM
same,IC50,[2],700 nM
CC(OP(=O)(N1CC1)N1CC1)c1cc(Oc2ccc(C(=O)N(C)C)cc2)c([N+](=O)[O-])cc1F (centres unmarked) [Example 8],IC50,"[1]; Homo sapiens, NCI-H460, 72 h",< 10 nM
same,IC50,[2],1790 nM
O=[N+]([O-])c1cc2c(cc1Oc1ccc(-c3ccccc3)nc1)C(OP(=O)(N1CC1)N1CC1)CC2 (centres unmarked) [Example 518],IC50,[1],< 10 nM
same,IC50,[2],746 nM
O=[N+]([O-])c1ccc2c(c1Oc1cccc(-c3cc(F)nn3CCO)c1)CC[C@@H]2OP(=O)(N1CC1)N1CC1 [Example 372],IC50,"[1]; Homo sapiens, NCI-H460, 72 h",< 10 nM
same,IC50,[2],332 nM
O=[N+]([O-])c1cc2c(cc1Oc1ccc(-c3ccccc3)nc1)[C@H](OP(=O)(N1CC1)N1CC1)CC2 [Example 528],IC50,[1],< 10 nM
same,IC50,[2],880 nM
Cn1ccc2cc(Oc3c([N+](=O)[O-])ccc4c3CCC4OP(=O)(N3CC3)N3CC3)ccc2c1=O (centres unmarked) [Example 381],IC50,"[1]; Homo sapiens, NCI-H460, 72 h",< 10 nM
same,IC50,[2],312 nM
O=[N+]([O-])c1ccc2c(c1Oc1cccc(-c3ncc(F)cn3)c1)CCC2OP(=O)(N1CC1)N1CC1 (centres unmarked) [Example 87],IC50,[1],10 to 50 nM
same,IC50,[2],5890 nM
"O=[N+]([O-])c1ccc2c(c1Oc1cccc(-c3ccccc3)c1)CCC2OP(=O)(N1CC1)N1CC1 (single isomer, unassigned) [Example 31]",IC50,[1],< 10 nM
same,IC50,[2],1550 nM
CCOc1cc(Oc2c([N+](=O)[O-])ccc3c2CC[C@@H]3OP(=O)(N2CC2)N2CC2)ccc1F [Example 493],IC50,"[1]; Homo sapiens, NCI-H460, 72 h",< 10 nM
same,IC50,[2],341 nM
O=[N+]([O-])c1ccc2c(c1Oc1cccc(OC3CC3)c1)CC[C@H]2OP(=O)(N1CC1)N1CC1 [Example 467],IC50,[1],< 10 nM
same,IC50,[2],4160 nM
"O=[N+]([O-])c1cc2c(cc1Oc1ccc(-c3ccccc3)cc1)C(OP(=O)(N1CC1)N1CC1)CC2 (single isomer, unassigned) [Example 153]",IC50,[1],< 10 nM
same,IC50,[2],477 nM
CN1Cc2cc(Oc3cc4c(cc3[N+](=O)[O-])CCC4OP(=O)(N3CC3)N3CC3)ccc2C1=O (centres unmarked) [Example 154],IC50,"[1]; Homo sapiens, NCI-H460, 72 h",< 10 nM
same,IC50,[2],309 nM
O=[N+]([O-])c1cc2oc(COP(=O)(N3CC3)N3CC3)cc2cc1Oc1ccc(-c2cccnc2)cc1 [Example 540],IC50,"[1]; Homo sapiens, NCI-H460, 72 h",< 10 nM
same,IC50,[2],1830 nM
Cn1nc(F)cc1-c1cccc(Oc2c([N+](=O)[O-])ccc3c2CCC3OP(=O)(N2CC2)N2CC2)c1 (centres unmarked) [Example 374],IC50,[1],< 10 nM
same,IC50,[2],468 nM
O=[N+]([O-])c1ccc2c(c1Oc1ccc(F)c(Br)c1)CCC2OP(=O)(N1CC1)N1CC1 (centres unmarked) [Example 510],IC50,[1],< 10 nM
same,IC50,[2],535 nM
O=[N+]([O-])c1ccc2c(c1Oc1cccc(OC3CCCC3)c1)CC[C@H]2OP(=O)(N1CC1)N1CC1 [Example 470],IC50,[1],< 10 nM
same,IC50,[2],1150 nM
O=[N+]([O-])c1ccc2c(c1Oc1cccc(-n3cc(F)cn3)c1)CCC2OP(=O)(N1CC1)N1CC1 (centres unmarked) [Example 82],IC50,"[1]; Homo sapiens, NCI-H460, 72 h",< 10 nM
same,IC50,[2],181 nM
Cn1ccc2cc(Oc3c([N+](=O)[O-])ccc4c3CCC4OP(=O)(N3CC3)N3CC3)ccc21 (centres unmarked) [Example 384],IC50,"[1]; Homo sapiens, NCI-H460, 72 h",< 10 nM
same,IC50,[2],1490 nM
CN(C)C(=O)c1cncc(Oc2c([N+](=O)[O-])ccc3c2CC[C@@H]3OP(=O)(N2CC2)N2CC2)c1 [Example 252],IC50,[1],10 to 50 nM
same,IC50,[2],2640 nM
O=C1CCCCN1c1cccc(Oc2c([N+](=O)[O-])ccc3c2CCC3OP(=O)(N2CC2)N2CC2)c1 (centres unmarked) [Example 107],IC50,"[1]; Homo sapiens, NCI-H460, 72 h",10 to 50 nM
same,IC50,[2],6500 nM
CC(OP(=O)(N1C[C@H]1C)N1C[C@H]1C)c1ccc([N+](=O)[O-])c(Oc2cccc(C(=O)N(C)C)c2)c1 (some centres unmarked) [Example 210],IC50,"[1]; Homo sapiens, NCI-H460, 72 h",< 10 nM
same,IC50,[2],294 nM
Cn1c(=O)oc2cc(Oc3c([N+](=O)[O-])ccc4c3CCC4OP(=O)(N3CC3)N3CC3)ccc21 (centres unmarked) [Example 121],IC50,"[1]; Homo sapiens, NCI-H460, 72 h",< 10 nM
same,IC50,[2],33.8 nM
